Measured values published in patent publication US9555009B2, “Ciprofloxacin loaded diethylaminoethyl cellulose nanoparticles” (priority 2014, dated 2017).

Details: XRD

average crystallite size / particle size by Scherrer's equation: 3.22 nm
SMILES: O=C(O)c1cn(C2CC2)c2cc(N3CCNCC3)c(F)cc2c1=O [pure ciprofloxacin, Ciprofloxacin]
